{"source": "patent US12433954B2", "about": "“Methods of activating anti-CD19 chimeric antigen receptor (CAR) T cells using amphiphilic ligand conjugates comprising CAR-targeting protein sequence motifs” (Massachusetts Institute of Technology, priority 2020, dated 2025)", "key": {"[1]": {"molecular_target": "FMC63 IgG", "experiment": "ELISA of N-terminally biotinylated F12 variants on streptavidin plate, binding to FMC63 IgG", "design": "species or system mouse", "conditions": "read-out: Kd (nM), FMC63 binding affinity of F12 variants with N-terminal flanking residues"}, "[2]": {"tested_on": "FMC63 CAR T cells", "experiment": "In vivo CAR T cell proliferation in lymph nodes after amph-mimotope vaccination (cell trace violet dilution)", "design": "species or system mice", "conditions": "inguinal LNs 48 hours post-vaccination; s.c. tail base with 25 μg cyclic-di-GMP; 10 ug monovalent or 20 ug bivalent", "experimental": "FIG. 18A depicts a timeline for administration of CD45.1+ donor FMC63 CAR T cells to CD45.2+ recipient mice on Day 0, followed by administration of amph-mimotope or bivalent amph-mimotope on Day 1, and analysis of CAR T cell proliferation in lymph nodes harvested on Day 3 measured by cell trace violet dilution.\nFIG. 18B provides histograms measuring the proliferation of FMC63 CAR T cells isolated from mice on Day 3 as depicted in FIG. 18A. The mice were administered amph-mimotope containing a mimotope with the sequence set forth in SEQ ID NO: 128 or 129 (Amph-K-A1 or Amph-K-C2 respectively) or the bivalent mimotopes depicted in FIG. 17C (amph-bi-F12-peg8 or amph-bi-F12-peg4). Control mice were administered no amph-mimotope.\nCD45.1^+ donor FMC63 CAR T cells were prepared as described in Example 3 and labeled with cell trace violet according to manufacturer's protocol. 2×10^6 CAR T cells were administered into CD45.2^+ recipient mice via tail vein injection on Day 0. The following day, recipient mice were vaccinated by subcutaneous injection at the tail base with the following vaccine formulation: • (i) 10 ug of monovalent amph-mimotope (Amph-K-A1 or Amph-K-C2)+25 μg of cyclic-di-GMP in 1×PBS; or • (ii) 20 ug of amph-Bi-F12-mimotope (PEG4 or PEG8)+25 μg of cyclic-di-GMP in 1×PBS. […]"}, "[3]": {"tested_on": "FMC63 scFv", "experiment": "Dissociation kinetics of FMC63 scFv from yeast clones (flow cytometry)", "type": "binding, mouse", "conditions": "yeast clones labeled, washed, incubated 0-72 hours", "experimental": "The yeast clones were labeled with the scFv, washed, and incubated for 0-72 hours as indicated prior to analysis.\nThe dissociation kinetics following binding of the mimotopes to FMC63 were also investigated. […] The yeast were then washed, and incubated for 0-72 hours prior to analysis of the degree of FMC63 scFv labeling by flow cytometry."}, "[4]": {"tested_on": "FMC63", "experiment": "FMC63 binding of mimotope-expressing yeast after DTT treatment (flow cytometry)", "design": "species or system mouse", "conditions": "DTT 0.01-10 mM, 30 minutes, room temperature; yeast-displayed", "experimental": "To determine the formation of an intra-peptidyl disulfide bridge formed by the two Cys residues, mimotope expressing yeast were treated in reducing conditions and binding of the mimotope to FMC63 IgG was measured. […] Similarly, control cells expressing Aga2p (connected to the yeast surface by disulfide bridge) were treated with DTT. Following treatment, cells were labelled with biotinylated Aga2p or FMC63 and binding was measured by flow cytometry. At mild reducing conditions, Aga2p was maintained on the yeast surface while mimotope binding to FMC63 was abolished (FIG. 6). The inhibition of mimotope binding to FMC63 following treatment with a reducing agent reaffirms the formation of the disulfide bond and its importance for binding."}, "[5]": {"tested_on": "FMC63 IgG antibody", "experiment": "Alanine scanning mutagenesis, flow cytometry binding to FMC63 IgG", "design": "species or system mouse", "conditions": "yeast stained with 5 μM FMC63 IgG antibody", "experimental": "FIG. 11 provides a graph showing flow cytometry analysis of alanine scanning mutagenesis for […] (SEQ ID NO: 16) where each amino acid position was mutated to an alanine, or additional alanine residues (one or two) were added. Flow cytometry analysis was performed to evaluate binding to the FMC63 IgG antibody.\nTo determine the effect of amino acid position on binding to FMC63, an alanine mutagenesis experiment was performed were each amino acid was mutated to alanine and binding to FMC63 was assessed. Specifically, a representative mimotope, […] (SEQ ID NO: 16), was mutated at each amino acid position to generate an alanine (SEQ ID NOs: 54-63) (Table 7). To assess the tolerance of additional alanine residues, one alanine or two alanine residues were inserted between the two cysteine residues (SEQ ID NOs: 52 and 53) to determine the impact the loop structure had on mimotope binding to FMC63. To generate mutations, two complementary oligos with the codon replaced at the desired site were denatured at 95° C. and annealed by slow cooling to 25° C. (decreasing by 0.5° C./second). The annealed oligos were treated with T4 PNK (T4 Polynucleotide Kinase) to add a terminal phosphate, and then ligated into digested pCT-CON2 vector. Positive clones having the correct oligo inserted were tested and transformed into competent EBY100 yeast cells. […]"}, "[6]": {"tested_on": "FMC63 anti-hCD19 CAR-T cells", "experiment": "IFNγ secretion of CAR-T cells co-cultured with amph-mimotope coated K562 cells (ELISA)", "type": "cell-based", "conditions": "K562 coated with 10 μM amph-mimotope, E:T 10:1, 24 hours; compared to amphiphile only control", "experimental": "ID NO: 5) at 10 μM and incubated at 37° C. for 30 minutes. The labeling reaction was stopped by pelleting cells and washing with PBS. To mimic antigen presenting cells in lymph nodes, K562 cells were decorated with amph-mimotope, and then co-cultured at an effector to target (E:T) ratio of 10:1 with FMC63 expressing CAR-T cells (hCD19-CAR; SEQ ID NO: 78) for 24 hours. The hCD19-CAR was generated in part from a previously reported CAR (Pegram, H., et al. (2012) Blood 119:18 (4133-4141) and is composed of a human CD8 signal peptide (SEQ ID NO: 87), FMC63 scFV (SEQ ID NO: 70), murine CD8 hinge (SEQ ID NO: 74), a murine CD8 transmembrane domain (SEQ ID NO: 75), a murine CD28 costimulatory domain (SEQ ID NO: 76) and a murine CD3ζ intracellular domain (SEQ ID NO: 77). The overall CAR is provided in SEQ ID NO: 78. After co-culture, cells were pelleted at 2,000×g for 5 minutes, and the supernatant was harvested for IFNγ ELISA and processed following the manufacturer's protocol (Human IFNγ ELISA MAXTM Deluxe (Biolegend))."}, "[7]": {"experiment": "Micelle stability of lipid-oligonucleotide conjugates in presence of serum", "type": "physicochemical", "conditions": "for percentage of intact micelles: micelles formed in aqueous solution, in the presence of serum (FBS); for micelle stability on increasing number of guanines: in the presence of serum, compared with lipo-G6T4-CG", "experimental": "For example, in certain embodiments, a plurality of lipid conjugates is allowed to spontaneously form micelles in aqueous solution. The micelles are incubated with albumin, or a solution including albumin such as Fetal Bovine Serum (FBS). Samples can be analyzed, for example, by ELISA, size exclusion chromatography or other methods to determine if binding has occurred. Lipid conjugates can be selected as lymph node-targeting conjugates if in the presence of albumin, or a solution including albumin such as Fetal Bovine Serum (FBS), the micelles dissociate and the lipid conjugates bind to albumin as discussed above.\nIn certain embodiments, the linker is one or more guanines, for example between 1-10 guanines. It has been discovered that altering the number of guanines between a cargo such as a CpG oligonucleotide, and a lipid tail controls micelle stability in the presence of serum proteins. Therefore, the number of guanines in the linker can be selected based on the desired affinity of the conjugate for serum proteins such as albumin. When the cargo is a CpG immunostimulatory oligonucleotide and the lipid tail is a diacyl lipid, the number of guanines affects the ability of micelles formed in aqueous solution to dissociate in the presence of serum: 20% of the non-stabilized micelles (lipo-G0T10-CG) (SEQ ID NO: 138) were intact, while the remaining 80% were disrupted and bonded with FBS components."}}, "note": "Bridge positions count the residues as written; N and C are the ends. Ends that are not written are not given here. Peptide text beside a SMILES is read from it. * marks the point of attachment. Biotin = O=C1N[C@H]2[C@H](CS[C@H]2CCCCC(=O)*)N1", "data": [{"compound": "CC[C@H](C)[C@H](NC(=O)[C@H](CCCNC(=N)N)NC(=O)[C@H](CO)NC(=O)[C@H](C)NC(=O)[C@H](CO)NC(=O)CCCC[C@@H]1SC[C@@H]2NC(=O)N[C@@H]21)C(=O)N[C@H]1CSSC[C@@H](C(=O)N[C@@H](CCCCN)C(=O)N[C@@H](CCC(=O)O)C(=O)N[C@@H](CC(C)C)C(=O)O)NC(=O)[C@H](CC(N)=O)NC(=O)[C@H](Cc2c[nH]c3ccccc23)NC(=O)[C@@H]2CCCN2C1=O", "note": "[SEQ ID NO: 95] (Biotin-SASRICPWNCKEL-OH; disulfide 6-10)", "values": [{"measurement": "Kd", "setting": "[1]", "result": 0.147, "unit": "nM"}]}, {"compound": "CC[C@H](C)[C@H](NC(=O)[C@H](CCCNC(=N)N)NC(=O)[C@H](CO)NC(=O)[C@H](C)NC(=O)[C@H](CO)NC(=O)CNC(=O)CNC(=O)CNC(=O)CCCC[C@@H]1SC[C@@H]2NC(=O)N[C@@H]21)C(=O)N[C@H]1CSSC[C@@H](C(=O)N[C@@H](CCCCN)C(=O)N[C@@H](CCC(=O)O)C(=O)N[C@@H](CC(C)C)C(=O)O)NC(=O)[C@H](CC(N)=O)NC(=O)[C@H](Cc2c[nH]c3ccccc23)NC(=O)[C@@H]2CCCN2C1=O", "note": "[SEQ ID NO: 96] (Biotin-GGGSASRICPWNCKEL-OH; disulfide 9-13)", "values": [{"measurement": "Kd", "setting": "[1]", "result": 0.141, "unit": "nM"}]}, {"compound": "Amph-K-C2 (GGGSASRICPWNCKELPSPPRIFGNR; cysteine pairing not given here; also: amphiphile lipid conjugate, site not given here)", "values": [{"measurement": "proliferation of CAR T cells in vivo (cell violet dilution)", "setting": "[2]", "result": "observed"}]}, {"compound": "K-A1 (PRKHSGRICPWNCKELDNPPFIFGNR; Synthetic FMC63 mimotope (A1))", "values": [{"measurement": "time for which FMC63 scFv labeling is retained after wash", "setting": "[3]", "result": "≥ 72", "unit": "h"}]}, {"compound": "RHCPWNCSLL [Clone A1]", "values": [{"measurement": "mimotope binding to FMC63 after DTT", "setting": "[4]", "result": "abolished"}]}, {"compound": "RLCPWSAACREL (Synthetic FMC63 Mimotope Mutant) [SEQ ID NO: 52]", "values": [{"measurement": "mimotope binding to FMC63 of RLCPWSCREL variants", "setting": "[5]", "result": "abolished"}]}, {"compound": "RLCPWSACREL (Synthetic FMC63 Mimotope Mutant) [SEQ ID NO: 53]", "values": [{"measurement": "mimotope binding to FMC63 of RLCPWSCREL variants", "setting": "[5]", "result": "abolished"}]}, {"compound": "amph-mimotope (RHCPWNCSLL; SEQ ID NO: 5) (cysteine pairing not given here; also: amphiphilic lipid tail conjugated, site not given here)", "values": [{"measurement": "CAR-T cell activation measured by IFNγ secretion", "setting": "[6]", "result": "significantly activated"}]}, {"compound": "lipo-G0T10-CG (DNA TTTTTTTTTTCG; DNA, backbone and methylation of C not given here; lipid conjugate)", "values": [{"measurement": "percentage of intact micelles", "setting": "[7]", "result": 20, "unit": "%"}]}, {"compound": "lipo-G2T8-CG (DNA GGTTTTTTTTCG; DNA, backbone and methylation of C not given here; lipid conjugate)", "values": [{"measurement": "percentage of intact micelles", "setting": "[7]", "result": 36, "unit": "%"}]}, {"compound": "lipo-G4T6-CG (DNA GGGGTTTTTTCG; DNA, backbone and methylation of C not given here; lipid conjugate)", "values": [{"measurement": "percentage of intact micelles", "setting": "[7]", "result": 73, "unit": "%"}]}, {"compound": "lipo-G6T4-CG (DNA GGGGGGTTTTCG; DNA, backbone and methylation of C not given here; lipid conjugate)", "values": [{"measurement": "percentage of intact micelles", "setting": "[7]", "result": 90, "unit": "%"}]}, {"compound": "lipo-G8T2-CG (DNA GGGGGGGGTTCG; DNA, backbone and methylation of C not given here; lipid conjugate)", "values": [{"measurement": "micelle stability on increasing number of guanines", "setting": "[7]", "result": "did not further enhance micelle stability"}]}, {"compound": "lipo-G10T0-CG (DNA GGGGGGGGGGCG; DNA, backbone and methylation of C not given here; lipid conjugate)", "values": [{"measurement": "micelle stability on increasing number of guanines", "setting": "[7]", "result": "did not further enhance micelle stability"}]}]}
